Experimental data reported in patent publication US11180479B2 (HAPLOGEN GmbH, priority 2017, dated 2021).

Key:
PLA2G16 = molecular target: T1, PLA2G16 (Homo sapiens, UniProt P53816); assay: Enzyme activity assay for PLA2G16 (Red/Green BODIPY PC-A2 fluorescence); format: biochemical; details: His-tagged PLA2G16, 4 min pre-incubation, compound 2 nM to 50 μM; first symbol in parentheses
T1 construct: Hexa-His (N); made in house; host or cells: E. coli BL21(DE3)
T1 sequence (P53816 1-162): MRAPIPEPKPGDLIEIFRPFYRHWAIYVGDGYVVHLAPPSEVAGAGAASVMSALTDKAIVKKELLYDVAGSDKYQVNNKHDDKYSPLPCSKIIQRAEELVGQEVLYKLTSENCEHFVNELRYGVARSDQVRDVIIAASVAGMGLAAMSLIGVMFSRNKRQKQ
Source text: Purification and Enzyme Activity Assay for PLA2G16
A cDNA for PLA2G16 (NM_007069) was custom-synthesized by Genscript (Piscataway, USA) and inserted into a pET-based bacterial expression vector [Moffatt, B. A. and Studier, F. W. (1986) J. Mol. Biol. 189, 113-130; Rosenberg, A. H., Lade, B. N., Chui, D., Lin, S., Dunn, J. J., and Studier, F. W. (1987) Gene 56, 125-135], enabling the expression of N-terminally Hexa-His-tagged PLA2G16. E. coli BL21(DE3) (Agilent) were transformed with pET-His-PLA2G16 according to the manufacturer's instructions and plated on Carbenicillin-containing agar plates (final concentration: 100 μg/mL). A single clone was inoculated in 100 mL LB medium supplemented with 100 μg/mL Carbenicillin and the inoculated culture was grown at 37° C. overnight in a rotary shaker. On the next day, the bacterial culture was diluted in LB medium supplemented with 100 μg/mL Carbenicillin (30 mL overnight culture in 800 mL total culture volume). Bacteria were grown at 37° C. until the OD600 reached 0.6. Gene expression was induced by addition of 1 mM isopropyl-β-D-thiogalactopyranosid (IPTG) for 2 h at 18° C. Subsequently, bacteria were harvested by centrifugation (15 min; 10,000×g; 4° C.) and frozen at −80° C. The bacterial pellet was resuspended in Buffer A (50 mM Tris/HCl pH 7.5, 500 mM NaCl, 5% glycerol, 5 mM β-Mercaptoethanol and 1 mM PMSF) and lysed by addition of 1 mg/mL lysozyme (Sigma Aldrich) and 100 μg/mL DNasel-(Roche). The sample was incubated at 30° C. for 30 min to allow lysis to occur. Then, the lysate was cleared by centrifugation (15,000×g, 15 min, 4° C.) and incubated with 1.5 mL Ni-NTA agarose suspension (Qiagen) for 60 min at 4° C. The Ni-NTA agarose was washed with 10 mL Buffer A. Bound protein was eluted by applying a manual gradient of Buffer A supplemented with increasing concentrations of imidazole (Sigma Aldrich; 25/50/75/100/250 mM). Purified fractions were analyzed by SDS-PAGE followed by Coomassie staining to assess the purity.
Activity of the protein was assessed as follows:
Red/Green BODIPY® PC-A2 (Invitrogen, 1 mM in DMSO) was mixed with equal volumes of 1,2-Dioleoyl-sn-glycero-3-phosphocholine (DOPC; Sigma Aldrich, 10 mM in Ethanol) and 1,2-Dioleoyl-sn-glycero-3-phospho-rac-(1-glycerol) (DOPG; Sigma Aldrich, 10 mM in Ethanol) and 0.5 volumes of Cholesterol (CHOL; Sigma Aldrich, 10 mM in Ethanol) and vortexed for 5 s. The mixture (Red/Green BODIPY® PC-A2/DOPC/DOPG/CHOL) was diluted 1:91.4 in activity assay buffer (50 mM Tris/HCl pH 8.5, 100 mM NaCl) using a small-orifice pipette tip under constant vortexing. In the following, this preparation will be referred to as the “substrate solution”.
In order to evaluate their inhibitory potential, compounds were dissolved at 10 mM concentration in DMSO and directly spotted into assay plates (Corning, Cat. No. 3576) using acoustic liquid transfer (Labcyte Echo 525). Each compound was spotted at increasing concentrations, ranging from 2 nM to 50 μM (concentration in the final assay volume). 50 μl of PLA2G16 enzyme solution (diluted in activity buffer, supplemented with 5 mM L-Glutathione; Sigma Aldrich) was pre-incubated with compounds for 4 min., followed by addition of 50 μl of substrate solution. Fluorescence was recorded immediately after substrate addition for a total time of 10 min. using a SpectraMax M5 multimode reader (Excitation wavelength: 480 nm, emission wavelength: 530 nm). The relative increase of fluorescence over time is referred to as the enzyme activity. Half-maximal inhibitory concentrations (IC50) were derived by non-linear regression analysis using the drc package in R (R Development. Core Team, 2005).

[1] = tested on: picornaviruses (CVB1, HRV-A2, HRV-A23, EV-68); assay: Anti-picornavirus cytopathic effect (CPE) reduction assay on HeLa H1 cells; format: cell-based; details: 48 h, category from averaging EC50 values of four picornaviruses (CVB1, HRV-A2, HRV-A23, EV68), second symbol in parentheses
Method: Anti-Picornavirus Assay in Mammalian Cell Culture
The antiviral activity of selected compounds was tested using a cytopathic effect (CPE) reduction assay on HeLa H1 cells (ATCC CRL-1958). Briefly, cells were seeded in 96-well dishes (2×10^4 cells/well) in DMEM medium (Life technologies) supplemented with 10% FBS and PenStrep solution (100 U/mL Penicillin and 100 μg/mL streptomycin) and incubated at 37° C., 5% CO2 overnight. The next day, cells were pre-treated with serial dilutions of the compound in DMEM medium supplemented with 2% FBS and PenStrep for 2 h at 37° C., 5% CO2. Next, cells were infected with virus (CVB1, HRV-A2, HRV-A23, EV-68) at an multiplicity of infection (MOI) which results in a complete virus-induced CPE within 2 days in control wells (infected and vehicle-treated). After 48 h, supernatants were aspirated and 50 μl/well of CellTiterBlue reagent (Promega) diluted 1:5 in DMEM+2% FBS, was added to the cells. Plates were returned to the incubator and allowed to develop for 1.5 h. After that, plates were equilibrated to RT and subsequently, fluorescence was recorded (Excitation wavelength: 560 nm; emission wavelength: 590 nm) using a SpectraMax M5 multimode plate reader. Viability of cells was calculated according to the formula: V=(RFUCpd−RFUVeh/(RFUM−RFUVeh), where RFUCpd refers to infected and compound-treated cells, RFUVeh to infected and vehicle-treated cells and RFUM to uninfected and vehicle treated cells. Half-maximal effective concentrations (EC50) were calculated by non-linear regression analysis using the drc package in R (R Development. Core Team, 2005). EC50 categories as presented in Table 2 were calculated by averaging the EC50 values from four picornaviruses (CVB1, HRV-A2, HRV-A23, EV68).

SMILES	IC50 (PLA2G16)	EC50 [1]
CNC(=O)CN1C[C@H](C(=O)C(=O)NCC(C)C)[C@@H](Cc2ccccc2)C1=O (racemic) [FP-43, Rac-2-[(3R,4R)-4-benzyl-1-[(methylcarbamoyl)methyl]-5-oxopyrrolidin-3-yl]-N-(2-methylpropyl)-2-oxoacetamide]	< 1000 nM	1000 to 10000 nM
Cn1cnc(CN2C[C@H](C(=O)C(=O)NC3CC3)[C@@H](Cc3ccc(F)cc3)C2=O)n1 (racemic) [FP-51, Rac-N-cyclopropyl-2-[(3R,4R)-4-[(4-fluorophenyl)methyl]-1-[(1-methyl-1H-1,2,4-triazol-3-yl)methyl]-5-oxopyrrolidin-3-yl]-2-oxoacetamide]	< 1000 nM	1000 to 10000 nM
Cn1ncnc1CN1C[C@H](C(=O)C(=O)NC2CC2)[C@@H](Cc2ccc(F)cc2)C1=O (racemic) [FP-52, Rac-N-cyclopropyl-2-[(3R,4R)-4-[(4-fluorophenyl)methyl]-1-[(1-methyl-1H-1,2,4-triazol-5-yl)methyl]-5-oxopyrrolidin-3-yl]-2-oxoacetamide]	< 1000 nM	> 10000 nM
O=C(NCC1CCC1)C(=O)[C@H]1CNC(=O)[C@@H]1c1ccccc1 (racemic) [FP-21, Rac-N-(cyclobutylmethyl)-2-oxo-2-[(3R,4S)-5-oxo-4-phenylpyrrolidin-3-yl]acetamide]	< 1000 nM	< 1000 nM
O=C(NC1CC1)C(=O)[C@H]1CN(c2ccc(Cl)nn2)C(=O)[C@@H]1Cc1ccccc1 (racemic) [FP-62, Rac-2-[(3R,4R)-4-benzyl-1-(6-chloropyridazin-3-yl)-5-oxopyrrolidin-3-yl]-N-cyclopropyl-2-oxoacetamide]	< 1000 nM	< 1000 nM
CC(C)CNC(=O)C(=O)[C@H]1CNC(=O)[C@@H]1c1ccccc1 (racemic) [FP-13, Rac-N-(2-methylpropyl)-2-oxo-2-[(3R,4S)-5-oxo-4-phenylpyrrolidin-3-yl]acetamide]	< 1000 nM	< 1000 nM
O=C(NC1CC1)C(=O)[C@H]1CNC(=O)[C@@H]1c1ccccc1 (racemic) [FP-14, Rac-N-cyclopropyl-2-oxo-2-[(3R,4S)-5-oxo-4-phenylpyrrolidin-3-yl]acetamide]	< 1000 nM	1000 to 10000 nM
CC(C)NC(=O)C(=O)[C@H]1CNC(=O)[C@@H]1Cc1ccccc1 (racemic) [FP-5, Rac-2-[(3R,4R)-4-benzyl-5-oxopyrrolidin-3-yl]-2-oxo-N-(propan-2-yl)acetamide]	< 1000 nM	< 1000 nM
CC(F)(F)CNC(=O)C(=O)[C@H]1CNC(=O)[C@@H]1c1ccccc1 (single isomer, unassigned) [FP-88]	< 1000 nM	< 1000 nM
CCCNC(=O)C(=O)[C@H]1CNC(=O)[C@@H]1c1ccccc1 (racemic) [FP-18, Rac-2-oxo-2-[(3R,4S)-5-oxo-4-phenylpyrrolidin-3-yl]-N-propylacetamide]	< 1000 nM	1000 to 10000 nM
CCNC(=O)C(=O)[C@H]1CN(c2cncnc2)C(=O)[C@@H]1Cc1ccccc1 (racemic) [FP-55, Rac-2-[(3R,4R)-4-benzyl-5-oxo-1-(pyrimidin-5-yl)pyrrolidin-3-yl]-N-ethyl-2-oxo-acetamide]	< 1000 nM	< 1000 nM
Cn1ncnc1CN1C[C@H](C(=O)C(=O)NC2CC2)[C@@H](Cc2ccccc2)C1=O (single isomer, unassigned) [FP-98]	< 1000 nM	1000 to 10000 nM
CCNC(=O)C(=O)[C@H]1CNC(=O)[C@@H]1Cc1ccc(F)cc1 (racemic) [FP-30, Rac-N-ethyl-2-[(3R,4R)-4-[(4-fluorophenyl)methyl]-5-oxopyrrolidin-3-yl]-2-oxoacetamide]	< 1000 nM	< 1000 nM
O=C(NCC1CC1)C(=O)[C@H]1CNC(=O)[C@@H]1Cc1ccccc1 (single isomer, unassigned) [FP-81]	< 1000 nM	< 1000 nM
O=C(NC1CC1)C(=O)[C@H]1CN(Cc2ccncn2)C(=O)[C@@H]1Cc1ccccc1 (racemic) [FP-37, Rac-2-[(3R,4R)-4-benzyl-5-oxo-1-[(pyrimidin-4-yl)methyl]pyrrolidin-3-yl]-N-cyclopropyl-2-oxoacetamide]	< 1000 nM	1000 to 10000 nM
CN1C[C@H](C(=O)C(=O)NC2CC2)[C@@H](C2CCCCC2)C1=O (racemic) [FP-38, Rac-2-[(3R,4R)-4-cyclohexyl-1-methyl-5-oxopyrrolidin-3-yl]-N-cyclopropyl-2-oxoacetamide]	< 1000 nM	1000 to 10000 nM
N#Cc1ncncc1N1C[C@H](C(=O)C(=O)NC2CC2)[C@@H](Cc2ccccc2)C1=O (racemic) [FP-65, Rac-2-[(3R,4R)-4-benzyl-1-(4-cyanopyrimidin-5-yl)-5-oxopyrrolidin-3-yl]-N-cyclopropyl-2-oxoacetamide]	< 1000 nM	1000 to 10000 nM
CC(F)(F)CNC(=O)C(=O)[C@H]1CN(c2cncnc2)C(=O)[C@@H]1Cc1ccccc1 (single isomer, unassigned) [FP-95]	< 1000 nM	< 1000 nM
O=C(NC1CC1)C(=O)[C@H]1CN(c2ccncn2)C(=O)[C@@H]1Cc1ccccc1 (racemic) [FP-61, Rac-2-[(3R,4R)-4-benzyl-5-oxo-1-(pyrimidin-4-yl)pyrrolidin-3-yl]-N-cyclopropyl-2-oxoacetamide]	< 1000 nM	1000 to 10000 nM
CC(F)(F)CNC(=O)C(=O)[C@H]1CN(c2cncnc2C#N)C(=O)[C@@H]1Cc1ccccc1 (racemic) [FP-66, Rac-2-[(3R,4R)-4-benzyl-1-(4-cyanopyrimidin-5-yl)-5-oxopyrrolidin-3-yl]-N-(2,2-difluoropropyl)-2-oxoacetamide]	< 1000 nM	1000 to 10000 nM
NC(=O)c1ccc(CN2C[C@H](C(=O)C(=O)NC3CC3)[C@@H](Cc3ccccc3)C2=O)cc1 (racemic)	< 1000 nM	–
